Legend:
Experiment in all cases: relative viability (nuclei count vs DMSO), 5 days (fraction); higher = more cells survive
BMX-IN-1 + Dasatinib = compound: C=CC(=O)Nc1cc(-n2c(=O)ccc3cnc4ccc(-c5ccc(NS(C)(=O)=O)cc5)cc4c32)ccc1C [BMX-IN-1] + Cc1nc(Nc2ncc(C(=O)Nc3c(C)cccc3Cl)s2)cc(N2CCN(CCO)CC2)n1 [Dasatinib] (partner 0.075 µM)
Procedure, shortened: (§1)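 Medians of duplicate plates are given as relative viability. That measure is the nuclei count in treated wells divided by the count in vehicle wells. Counts were taken on 4× images of lung cancer cell lines in 1536-well plates, 5 days after pin-tool dosing the day after seeding with one drug alone or a fixed anchor-drug dose plus five library-drug doses (not always all listed) in √10 steps.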

PAC-1 + AZD7762 = compound: C=CCc1cccc(/C=N/NC(=O)CN2CCN(Cc3ccccc3)CC2)c1O [PAC-1] + NC(=O)Nc1cc(-c2cccc(F)c2)sc1C(=O)N[C@H]1CCCNC1 [AZD7762] (partner 0.2 µM)
Procedure, shortened: as §1

Ibrutinib + Olaparib = compound: C=CC(=O)N1CCC[C@@H](n2nc(-c3ccc(Oc4ccccc4)cc3)c3c(N)ncnc32)C1 [Ibrutinib] + O=C(c1cc(Cc2n[nH]c(=O)c3ccccc23)ccc1F)N1CCN(C(=O)C2CC2)CC1 [Olaparib] (partner 8 µM)
Procedure, shortened: as §1

PAC-1 + Navitoclax = compound: C=CCc1cccc(/C=N/NC(=O)CN2CCN(Cc3ccccc3)CC2)c1O [PAC-1] + CC1(C)CCC(c2ccc(Cl)cc2)=C(CN2CCN(c3ccc(C(=O)NS(=O)(=O)c4ccc(N[C@H](CCN5CCOCC5)CSc5ccccc5)c(S(=O)(=O)C(F)(F)F)c4)cc3)CC2)C1 [Navitoclax] (partner 0.5 µM)
Procedure, shortened: as §1

Cell Line | relative viability (BMX-IN-1 + Dasatinib; first compound 0.02 µM) | relative viability (BMX-IN-1 + Dasatinib; first compound 0.2 µM) | relative viability (BMX-IN-1 + Dasatinib; first compound 0.6325 µM) | relative viability (BMX-IN-1 + Dasatinib; first compound 2 µM) | relative viability (PAC-1 + AZD7762; first compound 0.02 µM) | relative viability (PAC-1 + AZD7762; first compound 0.06325 µM) | relative viability (PAC-1 + AZD7762; first compound 0.2 µM) | relative viability (PAC-1 + AZD7762; first compound 2 µM) | relative viability (Ibrutinib + Olaparib; first compound 0.005 µM) | relative viability (Ibrutinib + Olaparib; first compound 0.01581 µM) | relative viability (Ibrutinib + Olaparib; first compound 0.05 µM) | relative viability (Ibrutinib + Olaparib; first compound 0.1581 µM) | relative viability (Ibrutinib + Olaparib; first compound 0.5 µM) | relative viability (PAC-1 + Navitoclax; first compound 0.02 µM) | relative viability (PAC-1 + Navitoclax; first compound 0.06325 µM) | relative viability (PAC-1 + Navitoclax; first compound 0.2 µM) | relative viability (PAC-1 + Navitoclax; first compound 2 µM)
NCI-H2085 | 0.246 | 0.223 | 0.236 | 0.227 | 0.994 | 1 | 0.907 | 1.1 | 0.764 | 0.735 | 0.736 | 0.749 | 0.748 | 1.1 | 1.08 | 1.12 | 1.16
NCI-H650 | 0.49 | 0.469 | 0.517 | 0.478 | 0.945 | 0.943 | 1.02 | 0.951 | 0.423 | 0.432 | 0.385 | 0.506 | 0.459 |  |  |  | 
NCI-H460 | 0.621 | 0.682 | 0.679 | 0.494 | 0.548 | 0.674 | 0.602 | 0.656 | 0.405 | 0.373 | 0.441 | 0.432 | 0.441 | 1.1 | 1.14 | 0.922 | 1.09
NCI-H1666 | 0.905 | 0.839 | 0.94 | 0.845 | 0.905 | 0.816 | 0.896 | 0.809 | 0.844 | 0.672 | 0.772 | 0.694 | 0.703 | 1.14 | 0.915 | 0.933 | 1.04
LK-2 | 0.338 | 0.325 | 0.304 | 0.282 | 0.488 | 0.315 | 0.327 | 0.416 | 0.633 | 0.691 | 0.715 | 0.628 | 0.425 | 0.816 | 0.805 | 0.88 | 0.845
NCI-H2009 | 0.303 | 0.294 | 0.278 | 0.271 |  |  |  |  | 0.754 | 0.671 | 0.771 | 0.802 | 0.738 | 1.16 | 1.18 | 1.22 | 1.16
COR-L 105 | 0.324 | 0.297 | 0.342 | 0.305 |  |  |  |  | 0.663 | 0.683 | 0.717 | 0.755 | 0.46 | 0.852 | 0.725 | 1.38 | 0.841
UMC-11 | 0.542 | 0.591 | 0.549 | 0.475 |  |  |  |  | 0.338 | 0.392 | 0.538 | 0.663 | 0.377 | 0.334 | 0.311 | 0.308 | 0.318
NCI-H2023 | 0.767 | 0.637 | 0.667 | 0.682 |  |  |  |  | 0.492 | 0.528 | 0.457 | 0.516 | 0.542 | 0.981 | 0.963 | 0.953 | 1.02
Calu-6 |  |  |  |  |  |  |  |  | 0.673 | 0.582 | 0.576 | 0.599 | 0.589 | 0.817 | 0.861 | 0.878 | 0.855
NCI-H1703 |  |  |  |  | 0.148 | 0.128 | 0.143 | 0.124 | 0.317 | 0.289 | 0.449 | 0.4 | 0.327 | 1.4 | 0.998 | 0.958 | 0.959
IA-LM |  |  |  |  |  |  |  |  | 0.881 | 0.891 | 0.797 | 0.936 | 1.04 | 0.78 | 0.92 | 0.632 | 0.657
NCI-H661 | 0.993 | 0.852 | 1 | 0.946 |  |  |  |  | 0.716 | 0.706 | 0.719 | 0.773 | 0.579 |  |  |  | 
NCI-H1623 | 0.529 | 0.526 | 0.569 | 0.504 |  |  |  |  |  |  |  |  |  |  |  |  | 
SK-LU-1 | 0.22 | 0.174 | 0.169 | 0.171 |  |  |  |  | 0.411 | 0.426 | 0.447 | 0.722 | 0.371 | 0.803 | 0.892 | 0.733 | 0.888
NCI-H2228 | 0.497 | 0.672 | 0.593 | 0.561 |  |  |  |  | 0.774 | 0.601 | 0.776 | 1.08 | 0.715 | 0.98 | 1.12 | 0.893 | 0.785
SW 1573 | 0.531 | 0.63 | 0.456 | 0.528 |  |  |  |  | 0.57 | 0.401 | 0.51 | 0.456 | 0.485 | 0.825 | 1.03 | 0.825 | 1.03
NCI-H2342 | 0.31 | 0.326 | 0.307 | 0.327 | 0.56 | 0.383 | 0.395 | 0.666 | 0.422 | 0.413 | 0.438 | 0.457 | 0.268 |  |  |  | 
NCI-H520 | 0.222 | 0.263 | 0.239 | 0.224 |  |  |  |  | 0.417 | 0.334 | 0.377 | 0.298 | 0.35 | 1.11 | 1.02 | 1.04 | 1.12
ABC-1 | 0.465 | 0.545 | 0.598 | 0.601 | 0.952 | 0.871 | 0.628 | 0.975 | 0.85 | 0.774 |  |  | 0.844 |  |  |  | 
COR-L23 | 0.523 | 0.544 | 0.594 | 0.528 |  |  |  |  | 0.398 | 0.31 | 0.363 | 0.385 | 0.327 | 0.874 | 0.984 | 0.908 | 0.999
NCI-H522 | 0.894 | 1.02 | 0.89 | 0.821 | 0.886 | 0.69 | 0.799 | 0.891 | 0.587 | 0.605 | 0.653 | 0.644 | 0.573 |  |  |  | 
HCC-44 |  |  |  |  | 1.09 | 0.998 | 1.03 | 0.992 | 1.06 | 0.965 |  | 1 | 1.07 | 1.01 | 0.977 | 0.978 | 1.01
NCI-H1648 |  |  |  |  | 0.604 | 0.898 | 0.73 | 0.66 | 0.626 | 0.552 | 0.653 | 0.766 | 0.481 |  |  |  | 
NCI-H358 | 0.166 | 0.145 | 0.176 | 0.135 | 0.51 | 0.507 | 0.55 | 0.402 | 0.469 | 0.508 |  | 0.747 | 0.248 |  |  |  | 
